In US12616681B2, “Compositions and methods for treating renal injury” (priority 2019, dated 2026):

Experiments:
[1] = system: contrast-induced acute kidney injury (CIAKI) mice; assay: CIAKI mouse model: renal blood flow (laser Doppler flux); type: in vivo, C57/BL6 mice; details: CM + drug, 48 h after CM
Description: Total RBF was assessed by measuring renal Doppler flux using noninvasive laser Doppler flowmetry (PeriFlux System 5000, Perimed AB, Sweden). Laser Doppler probes were placed on the kidney surface to measure the renal flux. The flux was measured 48 h after CM administration. The relative increase represented the percentage increase in renal blood flow from baseline to peak for each test. Statistical significance was set as p<0.05.

[2] = system: human renal proximal tubular epithelial cells (hRPTECs); assay: hRPTEC apoptosis by flow cytometry with iodixanol; type: cell-based; details: drug with iodixanol 50 mgI/mL, 24 h
Description: Human renal proximal tubular epithelial cells (hRPTECs) were purchased from the American Type Culture Collection (#PCS-400-010TM, Manassas, VA, USA). These cells were grown in 75 cm^2 flasks in Renal Epithelial Cell Basal Medium (PCS-400-030TM, ATCCVR) supplemented with Renal Epithelial Cell Growth Kit (PCS-400-040TM, ATCCVR).
After the treatment described in the section above, the hRPTECs were pelleted by centrifugation at 1800 rpm for 10 min and incubated with annexin V fluorescein isothiocyanate and propidium iodide using an Apoptosis Detection Kit I (#556547, BD Biosciences, San Jose, CA, USA) according to the manufacture's instruction. Then quantification was conducted using a FACSC flow cytometer with Cell Quest software (BD Biosciences).

[3] = rapidly degraded by 15-PGDH; cited from earlier work
[4] = system: contrast-induced acute kidney injury (CIAKI) mice; assay: CIAKI mouse model: AMP and adenosine levels in renal tissue; type: in vivo, C57/BL6 mice; details: 48 h after CM
Description: 48 h after CM administration, serum and kidney tissues were harvested. The adenosine levels in the serum and kidney tissues were measured using high-performance liquid chromatography.

[5] = system: human renal proximal tubular epithelial cells (hRPTECs); assay: hRPTEC cell viability (MTT assay) with iodixanol; type: cell-based; details: iodixanol 50 mgI/mL, 24 h; PGE1 100 ng/mL, PGE2 100 nM vs CM vehicle; CM vs normal control
Description: 3-(4,5-Dimethyl thiazol-2-yl)-2,5-diphenyl tetrazolium bromide (MTT) assay was used to assess cell viability. The hRPTECs were cultivated in 96-well plates at a density of 10^5 cells/mL and then incubated for 24 h. […] Then, 10 µM MTT (Sigma-Aldrich) was added to each well for an additional 4 h. The blue MTT formazan precipitate was dissolved in 100 mL dimethyl sulfoxide. The absorbance at 540 nm was measured with a multi-well plate reader. Cell viability was expressed as a percentage of the no-treatment cells, as the mean value±standard deviation of the six independent experiments.

[6] = system: contrast-induced acute kidney injury (CIAKI) mice; assay: CIAKI mouse model: necrotic and apoptotic cell death, gross findings; type: in vivo, C57/BL6 mice; details: 48 h after CM
Description: Kidneys were harvested at 48 h after the CM injection, fixed in 4% phosphate-buffered formalin, and embedded in paraffin. To evaluate necrosis, […] paraffin sections were stained with hematoxylin and eosin. Tubular injury was scored semi-quantitatively according to a system by a pathologist who examined at least 20 separate fields (400× magnification) in the outer medulla, which is the zone most sensitive to ischemic injury. The scoring system was as follows: 0, no damage; 1, patchy isolated unicellular necrosis; 2, tubular necrosis <25%; 3, tubular necrosis 25-50%; and 4, tubular necrosis >50%. At least 20 consecutive high-power fields per section were scored by two operators blind to the details of the experiment. To analyze the frequency of apoptosis, […] paraffin sections were subjected to terminal deoxynucleotidyl transferase-mediated dUTP nick-end labeling (TUNEL) assay (Millipore, Temecula, CA, USA) according to the manufacturer's protocol. Four […] paraffin sections were incubated with the TUNEL reaction mixture at 37° C. for 1 h, followed by incubation with a horseradish peroxidase-conjugated detection antibody. The signals were visualized using diaminobenzidine (Sigma-Aldrich). After counterstaining with Mayer's hematoxylin, TUNEL-positive cells were counted in at least five separate fields (640× magnification) in the outer medulla, and the apoptosis index (%, number of apoptosis cells/total number of cells) was calculated using GENASIS software.

## CCCCC[C@H](O)/C=C/[C@H]1[C@H](O)CC(=O)[C@@H]1C/C=C\CCCC(=O)O [PGE2, prostaglandin E2]
[1]
  RBF (renal Doppler flux): 541.4±22.65
[2]
  apoptosis rate of hRPTECs: 19.43±1.38%
[3]
  estimated half-life: less than 15 s
[4]
  AMP level compared to CIAKI mice, in words: increased
  adenosine level compared to CIAKI mice, in words: increased
[5]
  cell viability (MTT), in words: did not show any difference
[6]
  TUNEL-positive cell proportions vs CIAKI mice, in words: significantly lower
  vascular congestion in the outer medullary region (gross findings): less-congested
[6]; CM + drug, score 0-4
  microscopic renal injury score: 1.55±0.14
